Measurements: US20240002395A1, “COMPOUNDS AND THEIR USE FOR TREATING NEUROPATHIC PAIN” (The Johns Hopkins University, priority 2020, published 2024)
pEC50: −log10 of the molar value.

What was measured:
human MrgprX1 = target: T1, human MrgprX1 (Homo sapiens, UniProt Q96LB2); experiment: MrgprX1 positive allosteric modulator (PAM) calcium FLIPR assay in HEK293 cells; type: cell-based; conditions: PAM activity in presence of EC20 concentration of BAM8-22; HEK293 cells stably transfected with human MrgprX1
T1 construct: expressed in transfected cells
T1 sequence (Q96LB2 whole entry): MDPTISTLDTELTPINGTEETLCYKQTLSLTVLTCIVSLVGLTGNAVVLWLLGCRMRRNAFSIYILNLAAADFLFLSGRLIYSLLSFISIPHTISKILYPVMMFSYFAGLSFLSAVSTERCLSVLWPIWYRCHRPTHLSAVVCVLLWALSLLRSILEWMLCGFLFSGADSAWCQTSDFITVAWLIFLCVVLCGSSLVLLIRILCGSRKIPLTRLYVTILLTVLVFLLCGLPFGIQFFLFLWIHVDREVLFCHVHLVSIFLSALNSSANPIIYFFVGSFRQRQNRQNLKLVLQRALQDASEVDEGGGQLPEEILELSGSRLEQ
Procedure: HEK293 cells stably transfected with human MrgprX1 were plated onto poly-D-lysine-coated, black-walled, 96-well plates at a seeding density of 12,000 cells/well and grown for two days. On the day of the experiment, cells were incubated with Fluo-4 AM 2 μM, pluronic acid 0.04% and Trypan Red 1% in HBSS (pH 7.4, 100 μL) for 1 h at 37° C. For each different passage of cells, a BAM8-22 dose response was first conducted and the BAM8-22 EC20 determined. Test compounds were then dissolved and serially diluted in DMSO, further diluted with Trypan Red (1%)-containing HBSS (50 μL) and added to cells (0.33% DMSO concentration by volume) to first monitor for agonist activity. After 2.5 min, BAM8-22 at 4-fold EC20 (50 μL) was added to cells (0.25% DMSO concentration by volume) and the cells imaged on the FLIPR for an additional 2 minutes to monitor the test compounds for PAM activity. Finally, data were normalized to fluorescence signals obtained from 250 nM of BAM8-22 (maximum) and BAM8-22 at its EC20 concentration (minimum). EC50 of a test compound was defined as the concentration required to provoke a response halfway between the minimum and maximum response in the presence of EC20 concentration of BAM8-22.

[1] = Metabolic stability in mouse liver microsomes; type: in vitro ADME; conditions: mouse liver microsomes 0.5 mg/mL, NADPH, compound 5 μM, 60 min
Procedure: (§1) The metabolic stability was evaluated using mouse liver microsomes. For the cytochrome P450 (CYP)-mediated metabolism, the reaction was carried out with 100 mM potassium phosphate buffer, pH 7.4, in the presence of NADPH regenerating system (1.3 mM NADPH, 3.3 mM glucose 6-phosphate, 3.3 mM MgCl2, 0.4 U/mL glucose-6-phosphate dehydrogenase, 50 μM sodium citrate). Reactions, in triplicate, were initiated by addition of the liver microsomes to the incubation mixture (compound final concentration was 5 μM; 0.5 mg/mL microsomes). After 60 min of incubation, aliquots of the mixture were removed and the reaction quenched by addition of three times the volume of ice-cold acetonitrile spiked with the internal standard. Compound disappearance was monitored over time using a liquid chromatography and tandem mass spectrometry (LC/MS/MS) method.

[2] = Metabolic stability in human liver microsomes; type: in vitro ADME
Procedure: [The procedure below names another species; the source lists this species under the same test.] as §1

Row | pEC50 (human MrgprX1) | % remaining after 1-h incubation, Mouse [1] | % remaining after 1-h incubation, Human [2] | melting point | SMILES
1 | 7.70 | 36% | 93% | 205 °C | CC(C)(C)c1sc2ncnc(Oc3c(F)cccc3F)c2c1-c1ccc(Cl)c(Cl)c1 [Compound 7n, 6-tert-butyl-5-(3,4-dichlorophenyl)-4-(2,6-difluorophenoxy)thieno[2,3-d]pyrimidine]
2 | 6.52 | <5% | 78% | 81 to 82 °C | CC(C)(C)c1sc2ncnc(Oc3ccccc3F)c2c1-c1ccccc1 [Compound 7bd, 6-(tert-butyl)-4-(2-fluorophenoxy)-5-phenylthieno[2,3-d]pyrimidine]
3 | 6.40 | <5% | 61% |  | CC(C)(C)c1cc2c(Oc3ccccc3F)ncnc2s1 [Compound 7bc, 6-(tert-butyl)-4-(2-fluorophenoxy)thieno[2,3-d]pyrimidine]
4 | 6.00 |  |  | 119 °C | CCOc1ccccc1Oc1ncnc2sc(C(C)(C)C)c(-c3ccc(Cl)c(Cl)c3)c12 [Compound 7r, 6-tert-butyl-5-(3,4-dichlorophenyl)-4-(2-ethoxyphenoxy)thieno[2,3-d]pyrimidine]
5 | 7.52 |  |  | 115 °C | CC(C)(C)c1sc2ncnc(Oc3c(F)cccc3OC(F)(F)F)c2c1N1CCCC1 [Compound 7bf, 6-(tert-butyl)-4-(2-fluoro-6-(trifluoromethoxy)phenoxy)-5-(pyrrolidin-1-yl)thieno[2,3-d]pyrimidine]
6 | 6.22 |  |  | 148 °C | CC(C)(C)c1sc2ncnc(Oc3ccccc3)c2c1-c1ccc(Cl)c(Cl)c1 [Compound 7l, 6-tert-butyl-5-(3,4-dichlorophenyl)-4-phenoxythieno[2,3-d]pyrimidine]
7 | < 5.00 |  |  | 121 °C | CC(C)(C)c1sc2ncnc(Oc3cccc(OC(F)(F)F)c3)c2c1-c1ccc(Cl)c(Cl)c1 [Compound 7d, 6-tert-butyl-5-(3,4-dichlorophenyl)-4-(3-(trifluoromethoxy)phenoxy)thieno[2,3-d]pyrimidine]

Second part, the compound before the results:

Row | SMILES | pEC50 (human MrgprX1) | % remaining after 1-h incubation, Mouse [1] | % remaining after 1-h incubation, Human [2] | melting point
8 | CC(C)(C)c1sc2ncnc(Oc3c(F)cccc3OC(F)(F)F)c2c1-c1ccc(F)c(F)c1 [Compound 7al, 6-tert-butyl-5-(3,4-difluorophenyl)-4-(2-fluoro-6-(trifluoromethoxy)phenoxy)thieno[2,3-d]pyrimidine] | 7.70 | >95% | >95% | 150 °C
9 | Cc1sc2ncnc(Oc3ccccc3F)c2c1C [Compound 7ba, 4-(2-fluorophenoxy)-5,6-dimethylthieno[2,3-d]pyrimidine] | 6.70 | <5% | <5% | 144 °C
10 | CC(C)(C)c1sc2ncnc(Oc3c(F)cccc3OC(F)(F)F)c2c1-c1ccc(Cl)c(Cl)c1 [Compound 7b, 6-tert-butyl-5-(3,4-dichlorophenyl)-4-(2-fluoro-6-(trifluoromethoxy)phenoxy)thieno[2,3-d]pyrimidine] | 7.30 | 74% | >95% | 134 to 137 °C
11 | CC(C)(C)c1sc2ncnc(Oc3c(F)cccc3OC(F)(F)F)c2c1-c1ccc(Cl)cc1 [Compound 7ao, 6-tert-butyl-5-(4-chlorophenyl)-4-(2-fluoro-6-(trifluoromethoxy)phenoxy)thieno[2,3-d]pyrimidine] | 8.00 | >95% | >95% | 
12 | Cc1ccccc1Oc1ncnc2sc(C)c(C)c12 [Compound 7az, 5,6-dimethyl-4-(o-tolyloxy)thieno[2,3-d]pyrimidine] | 6.30 | <5% |  | 107 °C
13 | Cc1sc2ncnc(Oc3ccccc3F)c2c1-c1ccccc1 [Compound 7bb, 4-(2-fluorophenoxy)-6-methyl-5-phenylthieno[2,3-d]pyrimidine] | 6.40 | <5% | 12% | 158 °C
14 | CC(C)(C)c1sc2ncnc(Oc3c(F)cccc3F)c2c1-c1ccc(F)c(F)c1 [Compound 7ak, 6-tert-butyl-4-(2,6-difluorophenoxy)-5-(3,4-difluorophenyl)thieno[2,3-d]pyrimidine] | 7.15 |  |  | 185 °C
15 | CC(C)(C)c1sc2ncnc(OC3CC4CCC3C4)c2c1-c1ccc(Cl)c(Cl)c1 (stereo not drawn) [Compound 7ad, 4-(bicyclo[2.2.1]heptan-2-yloxy)-6-tert-butyl-5-(3,4-dichlorophenyl)thieno[2,3-d]pyrimidine] | 6.52 |  |  | 152 °C
16 | CC(C)(C)c1sc2ncnc(OC3CCCCC3)c2c1-c1ccc(Cl)c(Cl)c1 [Compound 7aa, 6-tert-butyl-4-(cyclohexyloxy)-5-(3,4-dichlorophenyl)thieno[2,3-d]pyrimidine] | 7.00 |  |  | 121 °C
17 | CC(C)(C)c1sc2ncnc(OC3(C(F)(F)F)CCCCC3)c2c1-c1ccc(Cl)c(Cl)c1 [Compound 7ai, 6-tert-butyl-5-(3,4-dichlorophenyl)-4-(1-(trifluoromethyl)cyclohexyloxy)thieno[2,3-d]pyrimidine] | < 5.00 |  |  | 142 °C
18 | CC(C)(C)c1sc2ncnc(OC3CCC3)c2c1-c1ccc(Cl)c(Cl)c1 [Compound 7y, 6-tert-butyl-4-cyclobutoxy-5-(3,4-dichlorophenyl)thieno[2,3-d]pyrimidine] | 5.15 |  |  | 146 °C
